These results are taken from patent US11168075B2, “Compounds and their use for reducing uric acid levels” (Acquist LLC, priority 2016, dated 2021).

The structures appear in SMILES notation. Read-outs that look alike come from different tables or passages of the source.

This experiment deals with xanthine oxidase (Homo sapiens (Human), UniProt P47989). Kind of experiment: Fluorescence-based xanthine oxidase activity assay. Format: biochemical. The note with it: for inhibition of xanthine oxidase compared to allopurinol: statement in words.
Where [1] appears, read: read-out: Xanthine Oxidase IC50.

xanthine oxidase, sequence (P47989 whole entry, species assumed): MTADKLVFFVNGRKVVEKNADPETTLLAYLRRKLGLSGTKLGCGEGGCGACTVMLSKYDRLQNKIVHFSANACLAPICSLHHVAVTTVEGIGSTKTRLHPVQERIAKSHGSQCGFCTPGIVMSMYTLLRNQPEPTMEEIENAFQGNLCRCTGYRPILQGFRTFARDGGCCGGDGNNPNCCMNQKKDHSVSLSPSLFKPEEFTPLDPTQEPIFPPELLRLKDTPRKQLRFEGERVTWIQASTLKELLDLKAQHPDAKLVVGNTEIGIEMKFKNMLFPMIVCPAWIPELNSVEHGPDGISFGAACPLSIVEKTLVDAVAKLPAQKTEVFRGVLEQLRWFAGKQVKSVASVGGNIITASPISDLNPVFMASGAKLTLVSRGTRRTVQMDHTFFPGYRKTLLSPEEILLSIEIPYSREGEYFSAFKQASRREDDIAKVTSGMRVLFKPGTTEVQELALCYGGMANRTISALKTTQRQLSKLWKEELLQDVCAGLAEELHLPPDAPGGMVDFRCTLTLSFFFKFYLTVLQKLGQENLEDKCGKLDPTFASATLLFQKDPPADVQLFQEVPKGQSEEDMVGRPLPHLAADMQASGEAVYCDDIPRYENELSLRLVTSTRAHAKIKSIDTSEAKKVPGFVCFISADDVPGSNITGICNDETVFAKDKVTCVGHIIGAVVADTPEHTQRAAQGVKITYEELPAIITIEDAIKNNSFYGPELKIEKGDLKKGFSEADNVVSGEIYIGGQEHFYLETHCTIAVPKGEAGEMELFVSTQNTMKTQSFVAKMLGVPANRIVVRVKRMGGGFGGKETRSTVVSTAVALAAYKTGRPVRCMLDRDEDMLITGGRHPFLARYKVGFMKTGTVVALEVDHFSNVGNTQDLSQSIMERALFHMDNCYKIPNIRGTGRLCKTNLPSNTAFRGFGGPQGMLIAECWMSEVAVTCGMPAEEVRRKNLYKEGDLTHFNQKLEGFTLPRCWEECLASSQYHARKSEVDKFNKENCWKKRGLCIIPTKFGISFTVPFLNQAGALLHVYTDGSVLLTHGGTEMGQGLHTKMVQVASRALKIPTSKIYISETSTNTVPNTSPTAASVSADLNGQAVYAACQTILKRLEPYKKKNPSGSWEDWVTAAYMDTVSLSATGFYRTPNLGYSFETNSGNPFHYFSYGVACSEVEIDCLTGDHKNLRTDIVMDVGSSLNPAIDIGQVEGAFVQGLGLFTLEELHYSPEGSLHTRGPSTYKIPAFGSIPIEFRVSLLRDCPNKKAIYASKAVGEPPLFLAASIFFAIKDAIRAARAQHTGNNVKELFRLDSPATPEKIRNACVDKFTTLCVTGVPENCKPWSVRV

In general, IC50 refers to the concentration that inhibits the measured activity by half. For `O=C1NS(=O)(=O)c2cc(NC(=O)c3c(O)[nH]c(=O)[nH]c3=O)ccc21` [Formula (IIIa), N-(1,1-dioxido-3-oxo-2,3-dihydrobenzo[d]isothiazol-6-yl)-2,4,6-trihydroxypyrimidine-5-carboxamide], under setting [1], the IC50 was determined as 4.5 µM.

As for `COc1nc(O)c(C(=O)Nc2ccc(-c3cnn[nH]3)cc2)c(=O)[nH]1` [Formula (IIb), N-(4-(3H-1,2,3-triazol-4-yl)phenyl)-4-hydroxy-2-methoxy-6-oxo-1,6-dihydropyrimidine-5-carboxamide], the “inhibition of xanthine oxidase compared to allopurinol” value (from here on “inhibition … compared to allopurinol”) is “particularly potent inhibitors”. Also, the IC50 under setting [1] stood at 0.56 µM.

`CC(C)Sc1nc(O)c(C(=O)Nc2ccc(-c3c[nH]nn3)cc2)c(=O)[nH]1` [Formula (IId), N-(4-(1H-1,2,3-triazol-5-yl)phenyl)-4-hydroxy-2-(isopropylthio)-6-oxo-1,6-dihydropyrimidine-5-carboxamide]: the “inhibition … compared to allopurinol” value is recorded as “particularly potent inhibitors”.

As for `O=C(Nc1ccc2[nH]c(=O)[nH]c2c1)c1c(O)[nH]c(=O)[nH]c1=O` [Formula (IVa), 6-hydroxy-2,4-dioxo-N-(2-oxo-2,3-dihydro-1H-benzo[d]imidazol-5-yl)-1,2,3,4-tetrahydropyrimidine-5-carboxamide], under setting [1], the IC50 came to 8.6 µM.

As to `O=C1Nc2ccc(NC(=O)c3c(O)[nH]c(=O)[nH]c3=O)cc2C1=O` [Formula (IVb), N-(2,3-dioxoindolin-5-yl)-6-hydroxy-2,4-dioxo-1,2,3,4-tetrahydropyrimidine-5-carboxamide], under setting [1], the IC50 was > 300 µM.

`O=C(Nc1ccc2c(c1)C1(OCCO1)C(=O)N2)c1c(O)[nH]c(=O)[nH]c1=O` [Formula (IVc), 6-Hydroxy-2,4-dioxo-N-(2′-oxospiro[[1,3]dioxolane-2,3′-indolin]-5′-yl)-1,2,3,4-tetrahydropyrimidine-5-carboxamide]: the IC50 was > 300 µM.

As to `N=C(Nc1ccc(-c2cnn[nH]2)cc1)c1c(O)[nH]c(=O)[nH]c1=O` [Formula (Ia), N-(4-(1H-1,2,3-triazol-4-yl)phenyl)-6-hydroxy-2,4-dioxo-1,2,3,4-tetrahydropyrimidine-5-carboximidamide], the “inhibition … compared to allopurinol” value is on record as “particularly potent inhibitors”. Under setting [1], the IC50 is 0.25 µM.

In turn, `CS/C(=N\c1ccc(-c2cnn[nH]2)cc1)c1c(O)[nH]c(=O)[nH]c1=O` [Formula (Ib), 5-(((4-(1H-1,2,3-triazol-5-yl)phenyl)amino)(methylthio)methylene)pyrimidine-2,4,6(1H,3H,5H)-trione] yielded an IC50 of 54.1 µM.

`O=c1[nH]c(O)c(/C(=N\O)Nc2ccc(-c3cnn[nH]3)cc2)c(=O)[nH]1` [Formula (Ic), (E)-N-(4-(1H-1,2,3-triazol-5-yl)phenyl)-N′-hydroxy-2,4,6-trioxohexahydro-pyrimidine-5-carboximidamide] returned an IC50 of 1.2 µM.

Turning to `N/N=C(/Nc1ccc(-c2cnn[nH]2)cc1)c1c(O)[nH]c(=O)[nH]c1=O` [Formula (Id), (E)-N-(4-(1H-1,2,3-triazol-5-yl)phenyl)-2,4,6-trioxohexahydropyrimidine-5-carbohydrazonamide], the half-maximal inhibitory concentration (IC50) is > 300 µM.

On to `Cn1c(O)c(C(=O)Nc2ccc(-c3cnn[nH]3)cc2)c(=O)n(C)c1=O` [Formula (Ie), N-(4-(1H-1,2,3-triazol-4-yl)phenyl)-6-hydroxy-1,3-dimethyl-2,4-dioxo-1,2,3,4-tetrahydropyrimidine-5-carboxamide], for which the “inhibition … compared to allopurinol” value is “particularly potent inhibitors”. For the same compound, the concentration for half-maximal inhibition (IC50) under setting [1] stood at 1.6 µM.

As for `Cn1c(O)c(C(=N)Nc2ccc(-c3cnn[nH]3)cc2)c(=O)n(C)c1=O` [Formula (If), N-(4-(1H-1,2,3-triazol-5-yl)phenyl)-6-hydroxy-1,3-dimethyl-2,4-dioxo-1,2,3,4-tetrahydropyrimidine-5-carboximidamide], the “inhibition … compared to allopurinol” value is reported as “particularly potent inhibitors”. Further, under setting [1], the IC50 was 0.2 µM.

As to `Cn1c(=O)[nH]c(O)c(C(=O)Nc2ccc(-c3cnn[nH]3)cc2)c1=O` [Formula (Ig), N-(4-(1H-1,2,3-triazol-4-yl)phenyl)-2,4-dihydroxy-1-methyl-6-oxo-1,6-dihydropyrimidine-5-carboxamide], the “inhibition … compared to allopurinol” value is on record as “particularly potent inhibitors”. Further, the IC50 under setting [1] is 0.55 µM.

`Cn1c(=O)[nH]c(O)c(C(=N)Nc2ccc(-c3cnn[nH]3)cc2)c1=O` [Formula (Ih)]: 0.74 µM corresponded to half-maximal inhibition (IC50) and the “inhibition … compared to allopurinol” value is given as “particularly potent inhibitors”.

As to `O=C(NC1CCC(c2c[nH]nn2)CC1)c1c(O)[nH]c(=O)[nH]c1=O` (stereo not shown) [Formula (Ii)], under setting [1], the IC50 was > 296 µM.

In the case of `O=C(NC1CCC(O)(c2c[nH]nn2)CC1)c1c(O)[nH]c(=O)[nH]c1=O` (stereo not shown) [Formula (Ij), 6-hydroxy-N-(4-hydroxy-4-(1H-1,2,3-triazol-4-yl)cyclohexyl)-2,4-dioxo-1,2,3,4-tetrahydropyrimidine-5-carboxamide], the IC50 under setting [1] worked out at 13.1 µM.

Turning to `Nc1[nH]c(=O)[nH]c(=O)c1C(=O)Nc1ccc(-c2c[nH]nn2)cc1` [Formula (Ik), N-(4-(1H-1,2,3-triazol-5-yl)phenyl)-6-amino-2,4-dioxo-1,2,3,4-tetrahydropyrimidine-5-carboxamide], the “inhibition … compared to allopurinol” value was “particularly potent inhibitors”. Moreover, the IC50 under setting [1] is 1.3 µM.

As to `O=C(Nc1c(O)[nH]c(=O)[nH]c1=O)c1ccc(-c2cnn[nH]2)cc1` [Formula (Il), 4-(1H-1,2,3-triazol-4-yl)-N-(2,4,6-trioxohexahydropyrimidin-5-yl)benzamide], the IC50 was found to be 6.3 µM.

In the case of `O=C(Nc1ccc(-c2[nH]nnc2-c2ccccc2)cc1)c1c(O)[nH]c(=S)[nH]c1=O` [Formula (Im), 6-hydroxy-4-oxo-N-(4-(4-phenyl-1H-1,2,3-triazol-5-yl)phenyl)-2-thioxo-1,2,3,4-tetrahydropyrimidine-5-carboxamide], the concentration for half-maximal inhibition (IC50) under setting [1] was 18.2 µM.

In turn, `O=C(Nc1ccc(-c2noc(C(F)(F)F)n2)cc1)c1c(O)[nH]c(=O)[nH]c1=O` [Formula (In), 6-hydroxy-2,4-dioxo-N-(4-(5-(trifluoromethyl)-1,2,4-oxadiazol-3-yl)phenyl)-1,2,3,4-tetrahydropyrimidine-5-carboxamide] displayed an IC50 of 292 µM.

For `O=C(NO)c1ccc(NC(=O)c2c(O)[nH]c(=O)[nH]c2=O)cc1` [Formula (VIIIa), 6-hydroxy-N-(4-(hydroxycarbamoyl)phenyl)-2,4-dioxo-1,2,3,4-tetrahydropyrimidine-5-carboxamide], the IC50 under setting [1] is 17.4 µM.

Turning to `O=C(NO)c1cc(NC(=O)c2c(O)[nH]c(=O)[nH]c2=O)ccn1` [Formula (VIIIb), 6-hydroxy-N-(2-(hydroxycarbamoyl)pyridin-4-yl)-2,4-dioxo-1,2,3,4-tetrahydropyrimidine-5-carboxamide], the IC50 under setting [1] stood at 73.8 µM.

Regarding `O=c1nc2[nH]n(-c3ccc(-c4cnn[nH]4)cc3)c(=O)c2c(O)[nH]1` [Formula (VIIa), 2-(4-(1H-1,2,3-triazol-5-yl)phenyl)-4,6-dihydroxy-1H-pyrazolo[3,4-d]pyrimidin-3(2H)-one], the IC50 under setting [1] came to 7 µM.

Turning to `O=c1[nH]c(=O)c2c(Nc3ccc(-c4cnn[nH]4)cc3)n[nH]c2[nH]1` [Formula (VIb), 3-((4-(1H-1,2,3-triazol-5-yl)phenyl)amino)-1H-pyrazolo[3,4-d]pyrimidine-4,6(5H,7H)-dione], the “inhibition … compared to allopurinol” value was “particularly potent inhibitors”. Also, under setting [1], the IC50 stood at 0.14 µM.

On to `Cn1c(=O)c2c(Nc3ccc(-c4cnn[nH]4)cc3)n[nH]c2n(C)c1=O` [Formula (VIc), 3-((4-(1H-1,2,3-triazol-5-yl)phenyl)amino)-5,7-dimethyl-1H-pyrazolo[3,4-d]pyrimidine-4,6(5H,7H)-dione], for which the IC50 under setting [1] came to 2.5 µM.

Take `O=C(Nc1nc(O)c2cn[nH]c2n1)c1c(O)[nH]c(=O)[nH]c1=O` [Formula (Va), 6-hydroxy-N-(4-hydroxy-1H-pyrazolo[3,4-d]pyrimidin-6-yl)-2,4-dioxo-1,2,3,4-tetrahydropyrimidine-5-carboxamide]: the IC50 under setting [1] was 36.1 µM.
